The source of these data is patent US6559166B1, “Phenylsulphonyl derivatives as 5-HT receptor ligands” (Merck Sharp & Dohme Ltd., priority 1999, dated 2003).

In data set [1] the target is human dopamine D2 receptor (Homo sapiens, UniProt P14416). As to conditions: cited from earlier work.
Chain of human dopamine D2 receptor (P14416 whole entry): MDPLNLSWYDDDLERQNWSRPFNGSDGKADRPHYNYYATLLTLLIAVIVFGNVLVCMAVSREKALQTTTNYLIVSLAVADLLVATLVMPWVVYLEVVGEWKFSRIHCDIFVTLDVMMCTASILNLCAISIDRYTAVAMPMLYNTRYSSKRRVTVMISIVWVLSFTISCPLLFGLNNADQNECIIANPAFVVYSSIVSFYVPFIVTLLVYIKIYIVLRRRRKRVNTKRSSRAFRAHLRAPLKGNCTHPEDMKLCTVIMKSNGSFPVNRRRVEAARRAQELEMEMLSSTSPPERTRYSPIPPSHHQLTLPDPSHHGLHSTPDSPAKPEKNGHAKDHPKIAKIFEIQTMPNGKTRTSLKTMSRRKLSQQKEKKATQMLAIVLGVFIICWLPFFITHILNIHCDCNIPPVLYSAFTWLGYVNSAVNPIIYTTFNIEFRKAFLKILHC

For `O=S(=O)(c1ccc(Cn2cnnn2)cc1)C1CCN(CCc2ccc(F)cc2F)CC1` [Example 12, 1-[2-(2,4-Difluorophenyl)ethyl]-4-[4-(tetrazol-1-ylmethyl)phenylsulphonyl]piperidine], the melting point (in general, the temperature of the solid-liquid transition) was in the range of 168 to 169 °C. Consider `COc1cccc(C(O)C2CCN(CCc3ccc(F)cc3)CC2)c1OC` (stereo not drawn) [MDL-100,907, (+)-α-(2,3-dimethoxyphenyl)-1-[2-(4-fluorophenyl)ethyl]-4-piperidinemethanol], for which the “activity at the human dopamine D2 receptor” value in data set [1] was “essentially devoid of activity”.
